Measured values taken from the supplement of paper PMC10307832.

Tests used:
Assay in all cases: relative viability (nuclei count vs DMSO), 5 days (fraction); higher = more cells survive
[1] = compound: O=C(O)C(Cc1ccccc1[N+](=O)[O-])=NNc1nc(-c2ccc(Cl)c(Cl)c2)cs1 (mixture of isomers) [4EGI-1] + C[C@]1(O)C[C@@H](c2nc(-c3ccc4ccc(-c5ccccc5)nc4c3)c3c(N)nccn32)C1 [Linsitinib] (partner 1 µM)
How it was run: (§1)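 The day after seeding in 1536-well plates, lung cancer cell lines were treated by pin tool with a single drug, or with a fixed anchor-drug dose together with five library-drug doses (not always all listed) in √10 steps. After 5 days, a combined fix-and-stain solution (final 0.05% Triton X-100, 1% formaldehyde, 1 ug/ml Hoechst) was added. Nuclei counted on 4× images gave relative viability as treated counts over vehicle counts, reported as the median of duplicate plates.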

[2] = compound: CN1CCN(CC1)C2=CC(=C(C=C2)NC3=NC=C4C(=N3)N(C5=CC=CC=C5C(=O)N4C)C)OC [XMD8-85] + CCNC(=O)c1noc(-c2cc(C(C)C)c(O)cc2O)c1-c1ccc(CN2CCOCC2)cc1 [Luminespib] (partner 0.01 µM)
How it was run: as §1

[3] = compound: CN1CCN(CC1)C2=CC(=C(C=C2)NC3=NC=C4C(=N3)N(C5=CC=CC=C5C(=O)N4C)C)OC [XMD8-85] + Nc1ncn([C@H]2C[C@H](O)[C@@H](CO)O2)c(=O)n1 [Decitabine] (partner 2 µM)
How it was run: as §1

[4] = compound: CN1CCN(CC1)C2=CC(=C(C=C2)NC3=NC=C4C(=N3)N(C5=CC=CC=C5C(=O)N4C)C)OC [XMD8-85] + N=C(N)NC(=N)NCCc1ccccc1 [Phenformin] (partner 250 µM)
How it was run: as §1

| Cell Line | relative viability ([1]; first compound 0.5 µM) | relative viability ([1]; first compound 1.581 µM) | relative viability ([1]; first compound 5 µM) | relative viability ([1]; first compound 15.81 µM) | relative viability ([1]; first compound 50 µM) | relative viability ([2]; first compound 0.08 µM) | relative viability ([2]; first compound 0.253 µM) | relative viability ([2]; first compound 0.8 µM) | relative viability ([2]; first compound 2.53 µM) | relative viability ([2]; first compound 8 µM) | relative viability ([3]; first compound 0.253 µM) | relative viability ([3]; first compound 0.8 µM) | relative viability ([3]; first compound 2.53 µM) | relative viability ([3]; first compound 8 µM) | relative viability ([4]; first compound 0.08 µM) | relative viability ([4]; first compound 0.253 µM) | relative viability ([4]; first compound 0.8 µM) | relative viability ([4]; first compound 2.53 µM) | relative viability ([4]; first compound 8 µM) | relative viability ([3]; first compound 0.08 µM) |
| --- | --- | --- | --- | --- | --- | --- | --- | --- | --- | --- | --- | --- | --- | --- | --- | --- | --- | --- | --- | --- |
| NCI-H1734 | 0.948 | 0.866 | 0.991 | 1 | 0.529 | 0.176 | 0.173 | 0.213 | 0.205 | 0.151 | 0.519 | 0.528 | 0.591 | 0.464 | 0.397 | 0.331 | 0.369 | 0.382 | 0.348 |  |
| NCI-H441 | 0.77 | 0.492 | 0.798 | 0.469 | 0.196 | 0.299 | 0.333 | 0.4 | 0.356 | 0.231 | 0.245 | 0.256 | 0.261 | 0.205 | 0.954 | 0.689 | 0.81 | 1.12 | 0.571 | 0.256 |
| NCI-H1355 | 0.927 | 0.831 | 0.714 | 0.611 | 0.614 | 0.528 | 0.747 | 0.697 | 0.642 | 0.6 | 0.308 | 0.345 | 0.355 | 0.329 | 0.417 | 0.409 | 0.422 | 0.437 | 0.408 | 0.359 |
| HCC-44 | 0.708 | 0.361 | 0.681 | 0.585 | 0.406 | 1.32 | 1.21 | 1.36 | 0.588 | 0.75 | 0.979 | 0.922 | 0.973 | 0.887 | 0.241 | 0.267 | 0.184 | 0.205 | 0.108 | 0.976 |
| NCI-H2085 | 1.03 | 0.911 | 0.887 | 0.771 | 0.639 | 0.412 | 0.513 | 0.403 | 0.348 | 0.302 | 0.529 | 0.538 | 0.535 | 0.517 | 0.805 | 0.734 | 0.752 | 0.626 | 0.516 | 0.546 |
| NCI-H520 | 1.19 | 0.984 | 1.01 | 0.75 | 0.558 | 0.235 | 0.257 | 0.192 | 0.202 | 0.201 | 0.506 | 0.496 | 0.528 | 0.429 | 0.574 | 0.6 | 0.557 | 0.543 | 0.446 |  |
| NCI-H647 | 1.17 | 1.12 | 1.22 | 1.07 | 0.202 | 0.151 | 0.208 | 0.169 | 0.126 | 0.132 | 0.357 | 0.417 | 0.45 | 0.327 | 0.258 | 0.522 | 0.528 | 0.465 | 0.307 | 0.43 |
| NCI-H358 | 0.882 | 0.689 | 0.889 | 0.69 | 0.208 | 0.303 | 0.172 | 0.376 | 0.339 | 0.239 | 0.243 | 0.229 | 0.234 | 0.198 | 0.301 | 0.314 | 0.312 | 0.385 | 0.167 | 0.219 |
| NCI-H1944 | 1.39 |  | 1.21 | 1.1 | 1.13 | 0.658 | 0.838 | 0.751 | 0.491 | 0.507 | 0.404 | 0.462 | 0.456 | 0.422 | 0.186 | 0.195 | 0.228 | 0.207 | 0.151 | 0.451 |
| LU99A | 0.593 |  | 0.651 | 0.524 | 0.401 | 0.228 | 0.252 | 0.206 | 0.309 | 0.193 | 0.86 | 1.08 | 0.769 | 0.694 | 0.816 | 0.881 | 0.858 | 0.936 | 0.701 | 0.919 |
| SW 1573 | 1 | 0.669 | 0.917 | 0.741 | 0.961 | 0.276 | 0.189 | 0.183 | 0.172 | 0.175 | 0.529 |  | 0.522 | 0.338 | 0.466 | 0.37 | 0.392 | 0.389 | 0.306 | 0.465 |
| HARA | 0.982 | 0.955 | 1.05 | 0.973 | 0.209 | 0.927 | 0.726 | 0.749 | 0.528 | 0.387 | 0.647 | 0.407 | 0.659 | 0.416 | 0.455 | 0.515 | 0.427 | 0.42 | 0.26 | 0.657 |
